The target of assay [1] is T1, DPP IV (Homo sapiens, UniProt P27487).
T1 construct: gene DPP4
Nature of the assay: fluorometric DPP (IV) inhibitor screening kit (Cayman), Gly-Pro-AMC substrate; at […] the effect was only a tendency ([…] < p < […]). Format: biochemical.

In assay [2] the target is T1, DPP IV. Nature of the assay: fluorometric DPP (IV) inhibitor screening kit (Cayman), Gly-Pro-AMC substrate. Format: biochemical.

Drawing on paper PMC9785006, “The Study of Hypoglycemic Activity of 7-Terpenylcoumarins” (Molecules, 2022), this text covers IC50 for two molecules.

T1 sequence (P27487 39-766): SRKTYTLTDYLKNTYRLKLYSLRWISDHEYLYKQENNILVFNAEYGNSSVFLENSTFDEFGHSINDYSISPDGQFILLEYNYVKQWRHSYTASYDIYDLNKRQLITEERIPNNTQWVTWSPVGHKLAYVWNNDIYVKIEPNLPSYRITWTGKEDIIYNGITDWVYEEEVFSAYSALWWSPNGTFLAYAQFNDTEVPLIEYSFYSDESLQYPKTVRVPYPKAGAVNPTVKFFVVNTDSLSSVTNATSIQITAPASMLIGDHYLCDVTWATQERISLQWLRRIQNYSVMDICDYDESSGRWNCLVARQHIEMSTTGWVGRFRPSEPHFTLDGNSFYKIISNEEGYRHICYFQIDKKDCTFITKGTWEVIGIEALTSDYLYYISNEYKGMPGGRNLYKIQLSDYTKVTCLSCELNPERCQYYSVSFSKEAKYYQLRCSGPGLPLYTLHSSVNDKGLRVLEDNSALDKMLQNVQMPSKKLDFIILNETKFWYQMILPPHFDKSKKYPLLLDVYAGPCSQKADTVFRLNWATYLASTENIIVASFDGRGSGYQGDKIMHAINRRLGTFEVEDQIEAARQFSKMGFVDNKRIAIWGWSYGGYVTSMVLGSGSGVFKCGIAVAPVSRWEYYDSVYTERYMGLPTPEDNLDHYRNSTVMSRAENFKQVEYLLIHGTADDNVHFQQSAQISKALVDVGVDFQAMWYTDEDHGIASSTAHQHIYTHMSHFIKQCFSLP

Regarding `CC1(C)[C@H]2CC=C(COc3ccc4c5c(c(=O)oc4c3)CCC5)[C@@H]1C2` [7b, 7-(((1R,5S)-6,6-Dimethylbicyclo [3.1.1]hept-2-en-2-yl)methoxy)-2,3-dihydrocyclopenta[c]chromen-4(1H)-one], the IC50 (as a rule, the point on the concentration scale where inhibition reaches its midpoint) against DPP IV [1] turned out to be 115 µM. At DPP IV [2], `CC(C)=CCC/C(C)=C/COc1ccc2c(-c3ccccc3)cc(=O)oc2c1` [9a, (E)-7-(3,7-Dimethylocta-2,6-dienyloxy)-4-phenyl-2H-chromen-2-one] displayed an IC50 of 128 µM.
